Each compound was assayed against Protein cereblon/DNA damage-binding protein 1 (Homo sapiens) (UniProt Q96SW2+Q16531) (assay: Displacement of AlexaFlour-conjugated ligand from CRBN/DDB1 complex (unknown origin) incubated in 0.05% PA/0.1% BSA at room temperature for 60 mins by fluorescence polarization assay).
Sequence of Protein cereblon/DNA damage-binding protein 1 (Homo sapiens) (Q16531 2-1140 partner limits assumed): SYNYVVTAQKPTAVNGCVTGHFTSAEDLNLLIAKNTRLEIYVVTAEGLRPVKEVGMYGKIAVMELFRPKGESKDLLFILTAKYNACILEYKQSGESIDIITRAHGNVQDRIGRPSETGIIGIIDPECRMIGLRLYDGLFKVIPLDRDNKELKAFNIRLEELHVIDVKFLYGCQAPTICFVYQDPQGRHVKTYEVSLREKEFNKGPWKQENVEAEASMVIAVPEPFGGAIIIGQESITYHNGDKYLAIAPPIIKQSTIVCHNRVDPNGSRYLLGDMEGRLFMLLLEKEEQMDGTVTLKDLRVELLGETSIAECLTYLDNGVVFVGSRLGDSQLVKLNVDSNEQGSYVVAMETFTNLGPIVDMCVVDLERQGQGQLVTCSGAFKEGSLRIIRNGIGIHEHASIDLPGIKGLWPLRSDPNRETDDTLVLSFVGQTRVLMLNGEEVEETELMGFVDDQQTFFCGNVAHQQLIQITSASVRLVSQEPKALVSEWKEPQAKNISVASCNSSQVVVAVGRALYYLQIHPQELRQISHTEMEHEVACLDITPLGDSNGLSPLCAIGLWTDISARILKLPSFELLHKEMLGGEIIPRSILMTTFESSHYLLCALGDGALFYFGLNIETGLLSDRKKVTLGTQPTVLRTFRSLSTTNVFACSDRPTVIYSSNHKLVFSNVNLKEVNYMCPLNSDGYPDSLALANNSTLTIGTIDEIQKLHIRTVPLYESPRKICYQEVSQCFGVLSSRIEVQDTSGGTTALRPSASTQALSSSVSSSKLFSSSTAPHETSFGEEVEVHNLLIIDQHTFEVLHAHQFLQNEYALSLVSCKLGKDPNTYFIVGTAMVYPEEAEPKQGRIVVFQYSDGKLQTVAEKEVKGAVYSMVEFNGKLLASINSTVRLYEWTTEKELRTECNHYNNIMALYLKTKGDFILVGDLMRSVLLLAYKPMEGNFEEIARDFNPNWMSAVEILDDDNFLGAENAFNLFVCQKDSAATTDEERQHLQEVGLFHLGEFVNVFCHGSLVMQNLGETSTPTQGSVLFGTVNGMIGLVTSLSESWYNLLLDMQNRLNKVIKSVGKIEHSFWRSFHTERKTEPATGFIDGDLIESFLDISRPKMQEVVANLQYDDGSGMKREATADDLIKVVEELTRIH
Sequence of Protein cereblon/DNA damage-binding protein 1 (Homo sapiens) (Q96SW2 whole entry): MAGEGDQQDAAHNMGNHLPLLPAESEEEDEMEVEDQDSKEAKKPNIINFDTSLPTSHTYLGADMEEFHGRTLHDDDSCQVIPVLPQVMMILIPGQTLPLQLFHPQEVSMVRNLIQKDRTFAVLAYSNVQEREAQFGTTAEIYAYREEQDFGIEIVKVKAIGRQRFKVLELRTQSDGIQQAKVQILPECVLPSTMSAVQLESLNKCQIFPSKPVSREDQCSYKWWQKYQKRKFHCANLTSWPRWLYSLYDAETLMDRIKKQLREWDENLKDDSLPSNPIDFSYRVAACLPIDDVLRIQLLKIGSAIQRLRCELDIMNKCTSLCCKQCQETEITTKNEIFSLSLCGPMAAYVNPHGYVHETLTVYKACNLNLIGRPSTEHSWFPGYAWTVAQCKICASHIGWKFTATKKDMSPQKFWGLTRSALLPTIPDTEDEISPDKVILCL
Format: protein assay
Work on CN(C(=O)OC(C)(C)C)C1CCN(c2cccc3c2OCCN3[C@H]2CCC(=O)NC2=O)CC1 yielded a binding affinity (displacement) of under 100 µM. O=C1CCC(N2CCOc3c(N4CCNCC4)cccc32)C(=O)N1 (stereo not drawn) was tested, and the binding affinity (displacement) was under 100 µM. For CN(C(=O)OC(C)(C)C)C1CCN(c2cccc3c2OCCN3[C@@H]2CCC(=O)NC2=O)CC1, the binding affinity (displacement) was under 1 µM. O=C1CCC(N2CCOc3c([C@@H]4CCNC4)cccc32)C(=O)N1 (stereo partly drawn) was tested, and the binding affinity (displacement) was under 100 µM. Compound O=C1CCC(N2CCOc3c([C@H]4CCNC4)cccc32)C(=O)N1 (stereo partly drawn) has a binding affinity (displacement) of under 100 µM. Work on CNC1CCN(c2cccc3c2O[C@H](C)CN3C2CCC(=O)NC2=O)CC1 (stereo partly drawn) yielded a binding affinity (displacement) of under 100 µM. CNC1CCN(c2cccc3c2O[C@@H](C)CN3C2CCC(=O)NC2=O)CC1 (stereo partly drawn) showed a binding affinity (displacement) of under 100 µM. In the case of O=C1CCC(N2CCOc3c([C@@H]4CCCNC4)cccc32)C(=O)N1 (stereo partly drawn), the binding affinity (displacement) is reported as under 100 µM.

Source: ChEMBL document CHEMBL5614447, “Innovative Drug Discovery: Targeting Cancer, Neurological Disorders, and Obesity” (ACS Med Chem Lett, 2024)
